{"source": "patent US9073821B2", "about": "“Hydroxamic acid derivative” (priority 2010, dated 2015)", "biological_target": "Pseudomonas aeruginosa LpxC enzyme (Pseudomonas aeruginosa (strain ATCC 15692 / DSM 22644 / CIP 104116 / JCM 14847 / LMG 12228 / 1C / PRS 101 / PAO1), UniProt P47205)", "experiment": "biochemical", "type": "biochemical", "conditions": "inhibitory activity on Pseudomonas aeruginosa LpxC enzyme, class symbols A/B/C; read-out: Enzyme inhibitory activity"}
{"smiles": "CNC(=O)C(C(=O)NO)N(C)C(=O)c1ccc(-c2ccc(OCCCN3CCS(=O)(=O)CC3)cc2)cc1", "note": "(centres unmarked) [Compound 289, 2-[({4′-[3-(1,1-dioxidothiomorpholin-4-yl)propoxy]biphenyl-4-yl}carbonyl)(methyl)amino]-N-hydroxy-N′-methylpropanediamide]", "values": [{"measurement": "IC50", "result": "< 10", "unit": "nM"}]}
{"smiles": "CNC(=O)C(C(=O)NO)N(C)C(=O)c1ccc(-c2ccc3c(c2)COC3)cc1", "note": "(centres unmarked) [Compound 290, 2-[{[4-(1,3-dihydro-2-benzofuran-5-yl)phenyl]carbonyl}(methyl)amino]-N-hydroxy-N′-methylpropanediamide]", "values": [{"measurement": "IC50", "result": "< 10", "unit": "nM"}]}
{"smiles": "CNC(=O)C(C(=O)NO)N(C)C(=O)c1ccc(-c2ccc(SCCOC)cc2)cc1", "note": "(centres unmarked) [Compound 291, N-hydroxy-2-[({4′-[(2-methoxyethyl)sulfanyl]biphenyl-4-yl}carbonyl)(methyl)amino]-N′-methylpropanediamide]", "values": [{"measurement": "IC50", "result": "< 10", "unit": "nM"}]}
{"smiles": "CNC(=O)C(C(=O)NO)N(C)C(=O)c1ccc(-c2ccsc2)cc1", "note": "(centres unmarked) [Compound 292, N-hydroxy-N′-methyl-2-(methyl {[4-(thiophen-3-yl)phenyl]carbonyl}amino)propanediamide]", "values": [{"measurement": "IC50", "result": "10 to 100", "unit": "nM"}]}
{"smiles": "CNC(=O)C(C(=O)NO)N(C)C(=O)c1ccc(-c2cccc(C)n2)cc1", "note": "(centres unmarked) [Compound 295, N-hydroxy-N′-methyl-2-(methyl {[4-(6-methylpyridin-2-yl)phenyl]carbonyl}amino)propanediamide]", "values": [{"measurement": "IC50", "result": "> 100", "unit": "nM"}]}
{"smiles": "CNC(=O)C(C(=O)NO)N(C)C(=O)c1ccc(-c2cccc(OC)n2)cc1", "note": "(centres unmarked) [Compound 296, N-hydroxy-2-[{[4-(6-methoxypyridin-2-yl)phenyl]carbonyl}(methyl)amino]-N′-methylpropanediamide]", "values": [{"measurement": "IC50", "result": "> 100", "unit": "nM"}]}
{"smiles": "CNC(=O)C(C(=O)NO)N(C)C(=O)c1ccc(-c2ccc(C(F)(F)F)cn2)cc1", "note": "(centres unmarked) [Compound 297, N-hydroxy-N′-methyl-2-[methyl({4-[5-(trifluoromethyl)pyridin-2-yl]phenyl}carbonyl)amino]propanediamide]", "values": [{"measurement": "IC50", "result": "> 100", "unit": "nM"}]}
{"smiles": "CNC(=O)C(C(=O)NO)N(C)C(=O)c1cnc(-c2ccccc2)cn1", "note": "(centres unmarked) [Compound 299, N-hydroxy-N′-methyl-2-{methyl[(5-phenylpyrazin-2-yl)carbonyl]amino}propanediamide]", "values": [{"measurement": "IC50", "result": "> 100", "unit": "nM"}]}
{"smiles": "CNC(=O)C(C(=O)NO)N(C)C(=O)c1ccc(C#Cc2ccc(CNCCF)cc2)cc1", "note": "(centres unmarked) [Compound 300, 2-[({4-[(4-{[(2-fluoroethyl)amino]methyl}phenyl)ethynyl]phenyl}carbonyl)(methyl)amino]-N-hydroxy-N′-methylpropanediamide]", "values": [{"measurement": "IC50", "result": "< 10", "unit": "nM"}]}
{"smiles": "CNC(=O)C(C(=O)NO)N(C)C(=O)c1ccc(C#Cc2ccc(CN3CCN(C)CC3)cc2)cc1", "note": "(centres unmarked) [Compound 304, N-hydroxy-N′-methyl-2-(methyl {[4-({4-[(4-methylpiperazin-1-yl)methyl]phenyl}ethynyl)phenyl]carbonyl}amino)propanediamide]", "values": [{"measurement": "IC50", "result": "< 10", "unit": "nM"}]}
{"smiles": "CNC(=O)C(C(=O)NO)N(C)C(=O)c1ccc(-n2cccc2)cc1", "note": "(centres unmarked) [Compound 307, N-hydroxy-N′-methyl-2-(methyl {[4-(1H-pyrrol-1-yl)phenyl]carbonyl}amino)propanediamide]", "values": [{"measurement": "IC50", "result": "> 100", "unit": "nM"}]}
{"smiles": "CNC(=O)C(C(=O)NO)N(C)C(=O)c1ccc(-c2cccs2)cc1", "note": "(centres unmarked) [Compound 308, N-hydroxy-N′-methyl-2-(methyl {[4-(thiophen-2-yl)phenyl]carbonyl}amino)propanediamide]", "values": [{"measurement": "IC50", "result": "10 to 100", "unit": "nM"}]}
{"smiles": "CNC(=O)C(C(=O)NO)N(C)C(=O)c1ccc(-c2cnccn2)cc1", "note": "(centres unmarked) [Compound 309, N-hydroxy-N′-methyl-2-(methyl {[4-(pyrazin-2-yl)phenyl]carbonyl}amino)propanediamide]", "values": [{"measurement": "IC50", "result": "> 100", "unit": "nM"}]}
{"smiles": "CNC(=O)C(C(=O)NO)N(C)C(=O)c1ccc(-c2cnco2)cc1", "note": "(centres unmarked) [Compound 310, N-hydroxy-N′-methyl-2-(methyl {[4-(1,3-oxazol-5-yl)phenyl]carbonyl}amino)propanediamide]", "values": [{"measurement": "IC50", "result": "> 100", "unit": "nM"}]}
{"smiles": "CNC(=O)C(C(=O)NO)N(C)C(=O)c1ccc(-c2ncccn2)cc1", "note": "(centres unmarked) [Compound 311, N-hydroxy-N′-methyl-2-(methyl {[4-(pyrimidin-2-yl)phenyl]carbonyl}amino)propanediamide]", "values": [{"measurement": "IC50", "result": "> 100", "unit": "nM"}]}
{"smiles": "CNC(=O)C(C(=O)NO)N(C)C(=O)c1ccc(-c2cc3ccccc3o2)cc1", "note": "(centres unmarked) [Compound 312, 2-[{[4-(1-benzofuran-2-yl)phenyl]carbonyl}(methyl)amino]-N-hydroxy-N′-methylpropanediamide]", "values": [{"measurement": "IC50", "result": "< 10", "unit": "nM"}]}
{"smiles": "CNC(=O)C(C(=O)NO)N(C)C(=O)c1ccc(C#Cc2ccc(CN(CCO)CCO)cc2)cc1", "note": "(centres unmarked) [Compound 315, 2-[({4-[(4-{[bis(2-hydroxyethyl)amino]methyl}phenyl)ethynyl]phenyl}carbonyl)(methyl)amino]-N-hydroxy-N′-methylpropanediamide]", "values": [{"measurement": "IC50", "result": "< 10", "unit": "nM"}]}
{"smiles": "CNC(=O)C(C(=O)NO)N(C)C(=O)c1ccc(C#Cc2ccc(CNC3CCC3)cc2)cc1", "note": "(centres unmarked) [Compound 316, 2-[{[4-({4-[(cyclobutylamino)methyl]phenyl}ethynyl)phenyl]carbonyl}(methyl)amino]-N-hydroxy-N′-methylpropanediamide]", "values": [{"measurement": "IC50", "result": "10 to 100", "unit": "nM"}]}
{"smiles": "CNC(=O)C(C(=O)NO)N(C)C(=O)c1ccc(C#Cc2ccc(CNC3CCCCC3)cc2)cc1", "note": "(centres unmarked) [Compound 318, 2-[{[4-({4-[(cyclohexylamino)methyl]phenyl}ethynyl)phenyl]carbonyl}(methyl)amino]-N-hydroxy-N′-methylpropanediamide]", "values": [{"measurement": "IC50", "result": "10 to 100", "unit": "nM"}]}
{"smiles": "CNC(=O)C(C(=O)NO)N(C)C(=O)c1ccc(OCc2ccc(OC)cc2)cc1", "note": "(centres unmarked) [Compound 319, N-hydroxy-2-[({4-[(4-methoxybenzyl)oxy]phenyl}carbonyl)(methyl)amino]-N′-methylpropanediamide]", "values": [{"measurement": "IC50", "result": "10 to 100", "unit": "nM"}]}
{"smiles": "CNC(=O)C(C(=O)NO)N(C)C(=O)c1ccc(C#Cc2ccc(OCC(O)CO)cc2)cc1", "note": "(centres unmarked) [Compound 320, 2-{[(4-{[4-(2,3-dihydroxypropoxy)phenyl]ethynyl}phenyl)carbonyl](methyl)amino}-N-hydroxy-N′-methylpropanediamide]", "values": [{"measurement": "IC50", "result": "< 10", "unit": "nM"}]}
{"smiles": "CNC(=O)C(C(=O)NO)N(C)C(=O)c1ccc(C#Cc2ccc(CN3CC(C)(O)C3)cc2)cc1", "note": "(centres unmarked) [Compound 321, N-hydroxy-2-[{[4-({4-[(3-hydroxy-3-methylazetidin-1-yl)methyl]phenyl}ethynyl)phenyl]carbonyl}(methyl)amino]-N′-methylpropanediamide]", "values": [{"measurement": "IC50", "result": "< 10", "unit": "nM"}]}
{"smiles": "CNC(=O)C(C(=O)NO)N(C)C(=O)c1ccc(C#Cc2ccc(CN3CC4(COC4)C3)cc2)cc1", "note": "(centres unmarked) [Compound 322, N-hydroxy-N′-methyl-2-{methyl[(4-{[4-(2-oxa-6-azaspiro[3.3]hept-6-ylmethyl)phenyl]ethynyl}phenyl)carbonyl]amino}propanediamide]", "values": [{"measurement": "IC50", "result": "< 10", "unit": "nM"}]}
{"smiles": "CNC(=O)C(C(=O)NO)N(C)C(=O)c1ccc(C#Cc2ccc(CNCCC(C)(C)O)cc2)cc1", "note": "(centres unmarked) [Compound 323, N-hydroxy-2-[({4-[(4-{[(3-hydroxy-3-methylbutyl)amino]methyl}phenyl)ethynyl]phenyl}carbonyl)(methyl)amino]-N′-methylpropanediamide]", "values": [{"measurement": "IC50", "result": "10 to 100", "unit": "nM"}]}
{"smiles": "CNC(=O)C(C)(C(=O)NO)N(C)C(=O)c1ccc(-c2ccccc2)cc1", "note": "(centres unmarked) [Compound 324, 2-[(Biphenyl-4-ylcarbonyl)(methyl)amino]-N-hydroxy-N′,2-dimethylpropanediamide]", "values": [{"measurement": "IC50", "result": "< 10", "unit": "nM"}]}
{"smiles": "CNC(=O)C(C(=O)NO)N(C)C(=O)c1ccc(C#Cc2ccc(CN(C)C3CCCCC3)cc2)cc1", "note": "(centres unmarked) [Compound 327, 2-[({4-[(4-{[cyclohexyl(methyl)amino]methyl}phenyl)ethynyl]phenyl}carbonyl)(methyl)amino]-N-hydroxy-N′-methylpropanediamide]", "values": [{"measurement": "IC50", "result": "10 to 100", "unit": "nM"}]}
{"smiles": "CNC(=O)C(C(=O)NO)N(C)C(=O)c1ccc(C#Cc2ccc(CNC(C)(C)C)cc2)cc1", "note": "(centres unmarked) [Compound 328]", "values": [{"measurement": "IC50", "result": "10 to 100", "unit": "nM"}]}
{"smiles": "CNC(=O)C(C(=O)NO)N(C)C(=O)c1ccc(C#Cc2ccc(CNCC(C)(C)C)cc2)cc1", "note": "(centres unmarked) [Compound 329, 2-[({4-[(4-{[(2,2-dimethylpropyl)amino]methyl}phenyl)ethynyl]phenyl}carbonyl)(methyl)amino]-N-hydroxy-N′-methylpropanediamide]", "values": [{"measurement": "IC50", "result": "< 10", "unit": "nM"}]}
{"smiles": "CNC(=O)C(C(=O)NO)N(C)C(=O)c1ccc(C#Cc2ccc(CNCc3ccccc3)cc2)cc1", "note": "(centres unmarked) [Compound 330, 2-[{[4-({4-[(benzylamino)methyl]phenyl}ethynyl)phenyl]carbonyl}(methyl)amino]-N-hydroxy-N′-methylpropanediamide]", "values": [{"measurement": "IC50", "result": "< 10", "unit": "nM"}]}
{"smiles": "CNC(=O)C(C(=O)NO)N(C)C(=O)c1ccc(C#Cc2ccc(CN3CCC(O)CC3)cc2)cc1", "note": "(centres unmarked) [Compound 334, N-hydroxy-2-[{[4-({4-[(4-hydroxypiperidin-1-yl)methyl]phenyl}ethynyl)phenyl]carbonyl}(methyl)amino]-N′-methylpropanediamide]", "values": [{"measurement": "IC50", "result": "< 10", "unit": "nM"}]}
{"smiles": "CCN(C(=O)c1ccc(C#Cc2ccc(CN3CCCOCC3)cc2)cc1)C(C(=O)NC)C(=O)NO", "note": "(centres unmarked) [Compound 336, 2-{ethyl[(4-{[4-(1,4-oxazepan-4-ylmethyl)phenyl]ethynyl}phenyl)carbonyl]amino}-N-hydroxy-N′-methylpropanediamide]", "values": [{"measurement": "IC50", "result": "< 10", "unit": "nM"}]}
{"smiles": "CNC(=O)[C@](C)(C(=O)NO)N(C)C(=O)c1ccc(-c2ccccc2)cc1", "note": "[Compound 343, (2R)-2-[(biphenyl-4-ylcarbonyl)(methyl)amino]-N-hydroxy-N′,2-dimethylpropanediamide]", "values": [{"measurement": "IC50", "result": "> 100", "unit": "nM"}]}
{"smiles": "CNC(=O)C(C(=O)NO)N(C)C(=O)c1ccc(-c2nc3ccccc3s2)cc1", "note": "(centres unmarked) [Compound 344, 2-[{[4-(1,3-benzothiazol-2-yl)phenyl]carbonyl}(methyl)amino]-N-hydroxy-N′-methylpropanediamide]", "values": [{"measurement": "IC50", "result": "10 to 100", "unit": "nM"}]}
{"smiles": "CNC(=O)C(C)(C(=O)NO)N(C)C(=O)c1ccc(C#Cc2ccccc2)cc1", "note": "(centres unmarked) [Compound 345, N-hydroxy-N′,2-dimethyl-2-(methyl {[4-(phenylethynyl)phenyl]carbonyl}amino)propanediamide]", "values": [{"measurement": "IC50", "result": "< 10", "unit": "nM"}]}
{"smiles": "CNC(=O)C(C)(C(=O)NO)N(C)C(=O)c1ccc(C#Cc2ccc(CN3CCCOCC3)cc2)cc1", "note": "(centres unmarked) [Compound 346, N-hydroxy-N′,2-dimethyl-2-{methyl[(4-{[4-(1,4-oxazepan-4-ylmethyl)phenyl]ethynyl}phenyl)carbonyl]amino}propanediamide]", "values": [{"measurement": "IC50", "result": "< 10", "unit": "nM"}]}
